In US10022420B2, “Methods of synthesizing γ-AApeptides, γ-AApeptide building blocks, γ-AApeptide libraries, and γ-AApeptide inhibitors of Aβ40 aggregates” (UNIVERSITY OF SOUTH FLORIDA, priority 2013, dated 2018):

Experiments:
Aβ40 [1] = biological target: T1, Aβ40 (Homo sapiens, UniProt P05067); test: Transmission electron microscopy (TEM) of Aβ40 fibrils; format: biochemical; conditions: HW-155-1 5 μM, 24 h
T1 construct: mouse 6e10 primary antibody which recognizes the first 16 amino acids of Aβ1-40
T1 sequence (P05067 672-711 limits assumed): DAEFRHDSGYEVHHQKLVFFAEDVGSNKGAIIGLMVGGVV
Procedure: FIGS. 15A-15D are TEM images illustrating monomeric Aβ40 in the absence (FIG. 15A) and presence (FIG. 15B) of HW-155-1 after 24 h and pre-aggregated Aβ40 in the absence (FIG. 15C) and presence (FIG. 15D) of HW-155-1 after 24 h. Bar=[…]; Aβ40 is 2.5 μM; and HW-155-1 is 5 μM. The ability of HW-155-1 to prevent Aβ aggregation was further confirmed by TEM (FIGS. 15A and 15B). In fact, HW-155-1 can even disassemble pre-formed Aβ fibrils (FIGS. 15C and 15D). In these experiments, the Aβ fibrils were not seen for 24 h after incubating HW-155-1 with Aβ40 monomers (prevention of aggregation) and pre-formed Aβ40 aggregates (disassembling aggregation). Aβ40 preparations were adsorbed onto 200-mesh copper grids for 1 hour (until it is dry), and then stained with 1% uranyl acetate for 20 sec. The excess fluid was removed and the grids were analyzed with FEI Morgagni 268D TEM operated at 60 kV.

Aβ40 [2] = biological target: T1, Aβ40; test: Thioflavin T (ThT) assay of Aβ40 aggregation; format: biochemical
Procedure: Aggregation control (100%) is set as the change of fluorescence of 2.5 μM Aβ40 in Tris (pH 7.5) buffer. The concentration of ThT is 5 μM. Excitation: 440 nm; emission: 482 nm. These two sequences were investigated for their capability to inhibit the aggregation of Aβ40 by ThT assay. […] Compounds in different concentrations in Tris buffer Saline (TBS, pH 7.5) containing 10 μM ThT were added into a black 96 well plate corning@3721. Aβ40 monomer was freshly thawed and used to make a stock solution in TBS with a concentration of 5 μM. Equal volume of Aβ solution was added into the 96 well palate (final Aβ concentration was 2.5 μM). Time-dependent fluorescence change was monitored by a Synergy 2 plate reader at an excitation wavelength of 440 nm and emission at 482 nm. After 24 h, the fluorescence change was recorded. 100% aggregation is the fluorescence change of 2.5 μM Aβ40 in TBS buffer containing 5 μM ThT.

N2a neuroblastoma cells = test: MTT toxicity assay: Aβ42 aggregates on N2a cells; format: cell-based; conditions: final Aβ 1 μM, 24 h
Procedure: FIG. 16 is a bar graph illustrating detoxification of Aβ42 aggregates by HW-155-1. N2a cells were cultured with 1 μM of pre-aggregated Aβ42 in the absence/presence of HW-155-1 for 24 h.
The effect of HW-155-1 on the toxicity of Aβ aggregates towards N2a neuroblastoma cells was then examined. […] In contrast, pre-incubation of 0.5 equiv. of HW-155-1 with Aβ42 reduces the death of N2a cells to 25%, while the presence of 1 equiv.
In siliconized tubes, Aβ42 peptide of 10 μM (in F-12 medium) were pre-incubated with 0, 0.5 and 1 equiv. HW-155-1 AApeptide, respectively. These solutions were incubated on rotating shaker (Barnstead 400100) at 8 rpm in 37° C. for 24 h. Meanwhile, N2a cells were plated in 96-well plates (10000 cells/well) with triple replications for 24 h. Then pre-aggregated mixtures were added into each well to make the final Aβ concentration at 1 μM. The plate was incubated for another 24 h. Next, 10 μL MTT reagent was added to the cells. The plate was incubated for 4 h at 37° C. After the addition of 100 μL solubilization solution and incubation overnight, OD values were read at 575 nm. The final cell viability was calculated as: Cell viability %=(OD575−OD blank)/(ODctrl−OD blank)×100%.

Aβ40 peptide = biological target: T2, Aβ40 peptide (Homo sapiens, UniProt P05067); test: On-bead screening of OBOC γ-AApeptide library against Aβ40 peptide; format: binding; conditions: Aβ40 20 ug/mL, 6e10 antibody, anti-mouse IgG-dylight 549
T2 construct: mouse 6e10 primary antibody which recognizes the first 16 amino acids of Aβ1-40
T2 sequence (P05067 672-711 limits assumed): as above
Procedure: The γ-AApeptide library was screened to identify ligands that can bind to Aβ. The anti-aggregation efficiency of identified ligands was determined by functional assay afterwards. Thus, beads were incubated with the Aβ40 peptide, followed by the treatment of anti-Aβ antibody 6E10 (FIG. 10). Then, anti-mouse IgG-dylight 549 conjugate was added. Dylight 549 produces strong orange fluorescence, a region in which TentaGel beads have low background fluorescence (see Aquino, C. supra, 4, which is incorporated by reference herein regarding properties of TentaGel beads). The dye is also much less expensive than quantum dots. […]
In order to avoid any possible nonspecific binding, both the Aβ and antibodies solution were made in 1% BSA/TBST blocking buffer. […] The beads were washed with PBST completely and transferred into a 6-well plate to be observed under Zeiss inverted fluorescence microscope 10×43HE filter, and the orange bright beads were picked up for they had suspicious nonspecific binding.
The rest of the beads were pulled together, washed with PBST, and then treated with 1% SDS at 90° C. for ten minutes to remove any bound proteins. […] After washing and equilibrating in TBST overnight, the beads were ready for actual Aβ screening. […]
The beads were collected and washed with 1×PBST three times. […] Washed with water, DMSO, and acetonitrile, beads were then cleaved and analyzed using previous procedure. […]

## C=CCOC(=O)N(CC(=O)N[C@@H](Cc1ccccc1)CN(CC(=O)N[C@@H](CCCCN)CN(CC(=O)N[C@@H](CC(C)C)CN(CC(N)=O)C(=O)CC(C)C)C(=O)CC(C)C)C(=O)CCc1ccccc1)C[C@@H](N)CCCCN [HW-155-1]
Aβ40 [1]; Aβ40 monomers 2.5 μM
  Aβ fibrils by TEM, prevention of aggregation: not seen
Aβ40 [1]; pre-formed Aβ40 aggregates 2.5 μM
  Aβ fibrils by TEM, disassembling aggregation: not seen
Aβ40 [2]; 1 μM compound, 2.5 μM Aβ40, first 2 h of incubation (FIG. 14B), read-out: inhibition of Aβ aggregation
  inhibition at 1 µM: ~50%
Aβ40 [2]; ThT assay, Aβ40
  potency relative to KLVFF: at least 100 fold
N2a neuroblastoma cells; 0.5 equiv. compound pre-incubated with Aβ42, Aβ42 alone kills 30%
  death of N2a cells: 25%
N2a neuroblastoma cells; 1 equiv. compound pre-incubated with Aβ42
  toxicity of Aβ42 / death of N2a cells: almost completely removes the toxicity
Aβ40 peptide
  on-bead binding to Aβ40 (screening outcome): hit
